# Measurements as given in patent publication EP0689844A1, “Complexes of vinpocetine formed with cyclodextrins, process for their preparation and pharmaceutical compositions containing them” (TECNIMEDE-SOCIEDADE TECNICO-MEDICINAL, S.A., priority 1994, dated 1996).
# Where two headings read alike, the source gives them in different places.
# Assays:
# [1] = solubility of vinpocetine in cyclodextrin solutions of different concentrations (phase solubility, HPLC); assay type: physicochemical; details: aqueous cyclodextrin solution, 37 °C, aqueous with cosolvent or surfactant or cyclodextrin, thermodynamic from solid
# Method: 10 mg of vinpocetine, cyclodextrin in different amounts and 10 ml of distilled water were charged into 20 ml test tubes. After closing, the tubes were agitated for 24 hours at 37°C, thereafter the samples were filtrated and the filtrates were analysed by HPLC (High Performance Liquid Chromatography) in 0.1N HCl solution.
# [2] = p.o.; cited from earlier work
# [3] = cited from earlier work
structure (smiles),measurement,setting,value
"CCOC(=O)C1=C[C@]2(CC)CCCN3CCc4c(n1c1ccccc41)[C@@H]32 [vinpocetine, eburnamenine-14-carboxylic acid ethyl ester]",solubility at 24 h,[1]; HP-β-cyd 25.0 mM in distilled water,5.5 µg/mL
same,solubility at 24 h,[1]; HP-β-cyd 50.0 mM in distilled water,12.8 µg/mL
same,solubility at 24 h,[1]; HP-β-cyd 100.0 mM in distilled water,23.2 µg/mL
same,solubility at 24 h,[1]; γ-cyd 12.5 mM in distilled water,6.1 µg/mL
same,solubility at 24 h,[1]; γ-cyd 25.0 mM in distilled water,12 µg/mL
same,solubility at 24 h,[1]; γ-cyd 50.0 mM in distilled water,24.4 µg/mL
same,absolute bioavailability,[2],6.7%
same,solubility,[3]; in ethanol and 0.1N HCl,dissolves well
same,solubility,"[3]; in water, ethyl ether and hexane",poorly soluble
